The target of one assay is T1, Progesterone receptor (Bos taurus, UniProt Q690N0).
T1 sequence (Q690N0 whole entry): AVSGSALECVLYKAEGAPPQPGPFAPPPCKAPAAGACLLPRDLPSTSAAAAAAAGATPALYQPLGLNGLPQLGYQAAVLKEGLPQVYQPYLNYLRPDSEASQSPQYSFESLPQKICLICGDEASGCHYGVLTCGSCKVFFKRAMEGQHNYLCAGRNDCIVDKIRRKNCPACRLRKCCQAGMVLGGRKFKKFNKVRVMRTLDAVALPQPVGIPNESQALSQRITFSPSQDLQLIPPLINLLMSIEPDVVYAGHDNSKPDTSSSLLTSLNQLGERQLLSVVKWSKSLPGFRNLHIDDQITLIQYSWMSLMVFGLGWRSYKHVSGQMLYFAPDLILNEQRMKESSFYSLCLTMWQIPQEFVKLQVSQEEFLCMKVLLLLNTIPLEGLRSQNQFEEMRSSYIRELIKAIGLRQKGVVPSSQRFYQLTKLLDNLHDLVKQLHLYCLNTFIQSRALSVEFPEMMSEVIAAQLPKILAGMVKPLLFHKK
Put plainly: DRUGMATRIX: Progesterone radioligand binding (ligand: [3H] R-5020). The assay is classed as tissue-based, Uterus. As to conditions: Not Active = under 50% inhibition at 10 µM.

In another assay the target is Glycine receptor (Rattus norvegicus, UniProt P22771+P24524+P07727+P20781). The assay is classed as cell membranes, Wistar, Spinal cord, Membrane. Note: in other assays of this panel Not Active means under 50% inhibition at 10 µM.
Assay [1] can be described thus: DRUGMATRIX: Leukotriene, BLT (LTB4) radioligand binding (ligand: [3H]LTB4). The following applies: u-937, Not Active = under 50% inhibition at 10 µM. The format is cell membranes, Membrane.
Assay [2] can be described thus: DRUGMATRIX: Tumor Necrosis Factor (TNF), Non-Selective radioligand binding (ligand: [125I] TNF-alpha). As to conditions: u-937; Not Active = under 50% inhibition at 10 µM. The assay is classed as cell membranes, Membrane.
Another assay addresses T2, Neutrophil elastase (Homo sapiens, UniProt P08246).
T2 sequence (P08246 whole entry): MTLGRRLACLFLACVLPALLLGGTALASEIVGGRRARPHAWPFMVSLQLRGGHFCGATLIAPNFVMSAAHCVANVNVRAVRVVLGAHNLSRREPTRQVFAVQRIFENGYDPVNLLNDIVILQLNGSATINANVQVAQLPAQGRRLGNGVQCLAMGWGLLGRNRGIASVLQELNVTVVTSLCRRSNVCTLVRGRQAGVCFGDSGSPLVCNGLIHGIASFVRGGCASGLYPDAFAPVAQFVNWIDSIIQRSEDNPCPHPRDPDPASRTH
The assay is classed as tissue-based.

In assay [3] the target is T3, Nitric oxide synthase, inducible (Mus musculus, UniProt P29477).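 Note: inhibition of iNOS enzyme activity measured with L-arginine as substrate; in other assays of this panel Not Active means under 50% inhibition at 10 µM.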
T3 sequence (P29477 whole entry): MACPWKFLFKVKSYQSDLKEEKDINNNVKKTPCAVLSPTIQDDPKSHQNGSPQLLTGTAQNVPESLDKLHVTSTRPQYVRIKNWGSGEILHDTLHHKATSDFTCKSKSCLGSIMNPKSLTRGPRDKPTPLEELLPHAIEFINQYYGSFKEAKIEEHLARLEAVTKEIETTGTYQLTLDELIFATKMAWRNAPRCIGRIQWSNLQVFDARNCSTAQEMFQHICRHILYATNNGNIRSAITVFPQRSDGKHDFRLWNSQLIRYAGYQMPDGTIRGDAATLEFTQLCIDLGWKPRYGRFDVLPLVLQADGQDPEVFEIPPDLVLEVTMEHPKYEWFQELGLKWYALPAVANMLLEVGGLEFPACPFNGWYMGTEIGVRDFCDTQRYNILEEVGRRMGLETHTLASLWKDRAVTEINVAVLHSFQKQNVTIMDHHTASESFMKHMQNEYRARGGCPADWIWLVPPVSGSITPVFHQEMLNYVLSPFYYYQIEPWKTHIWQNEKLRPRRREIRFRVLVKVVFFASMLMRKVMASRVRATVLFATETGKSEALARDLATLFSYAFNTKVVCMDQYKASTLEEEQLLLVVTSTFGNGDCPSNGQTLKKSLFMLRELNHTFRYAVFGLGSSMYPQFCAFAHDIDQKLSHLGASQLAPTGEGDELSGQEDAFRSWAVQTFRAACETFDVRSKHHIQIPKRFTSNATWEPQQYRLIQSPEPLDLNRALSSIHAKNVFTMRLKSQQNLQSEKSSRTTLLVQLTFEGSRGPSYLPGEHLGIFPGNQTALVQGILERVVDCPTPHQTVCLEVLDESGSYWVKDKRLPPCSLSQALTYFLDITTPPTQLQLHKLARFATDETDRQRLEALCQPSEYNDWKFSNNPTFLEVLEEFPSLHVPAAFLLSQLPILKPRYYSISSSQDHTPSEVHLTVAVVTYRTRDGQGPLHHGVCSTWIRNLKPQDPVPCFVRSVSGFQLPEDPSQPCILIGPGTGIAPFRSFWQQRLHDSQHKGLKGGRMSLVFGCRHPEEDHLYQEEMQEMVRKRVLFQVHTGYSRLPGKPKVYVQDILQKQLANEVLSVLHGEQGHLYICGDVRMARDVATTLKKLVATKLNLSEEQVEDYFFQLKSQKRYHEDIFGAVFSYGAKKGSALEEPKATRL
Also noted: species or system Escherichia coli.

The target of assay [4] is 5-hydroxytryptamine receptor 6 (Homo sapiens, UniProt P50406). The assay is classed as cell membranes, HeLa, Membrane. As to conditions: for IC50: hela. For all read-outs here: in other assays of this panel Not Active means under 50% inhibition at 10 µM.

pIC50, pKi: −log10 of the molar value.

5-hydroxytryptamine receptor 6, sequence (P50406 whole entry): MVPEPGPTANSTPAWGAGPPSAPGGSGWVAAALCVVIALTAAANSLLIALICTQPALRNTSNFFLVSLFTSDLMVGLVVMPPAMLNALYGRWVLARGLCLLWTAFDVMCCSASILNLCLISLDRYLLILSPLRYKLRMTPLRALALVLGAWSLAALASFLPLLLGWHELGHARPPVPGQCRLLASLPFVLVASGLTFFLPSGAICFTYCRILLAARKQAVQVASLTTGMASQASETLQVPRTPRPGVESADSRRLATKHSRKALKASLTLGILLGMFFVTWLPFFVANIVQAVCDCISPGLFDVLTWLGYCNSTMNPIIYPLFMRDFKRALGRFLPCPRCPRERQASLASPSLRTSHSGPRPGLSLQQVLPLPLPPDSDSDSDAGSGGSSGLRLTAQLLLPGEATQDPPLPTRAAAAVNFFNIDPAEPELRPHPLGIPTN

Turning to `OC[C@H]1O[C@@H]2O[C@H]3[C@H](O)[C@@H](O)[C@@H](O[C@H]4[C@H](O)[C@@H](O)[C@@H](O[C@H]5[C@H](O)[C@@H](O)[C@@H](O[C@H]6[C@H](O)[C@@H](O)[C@@H](O[C@H]7[C@H](O)[C@@H](O)[C@@H](O[C@H]1[C@H](O)[C@H]2O)O[C@@H]7CO)O[C@@H]6CO)O[C@@H]5CO)O[C@@H]4CO)O[C@@H]3CO` [ALFADEX], the IC50 result (on Progesterone receptor; on Glycine receptor; in assay [1]; in assay [2]; against Neutrophil elastase; in assay [3]) was “Not Active” throughout. Further, the IC50 result in assay [4] is “Not Active”. For the same molecule, the Ki entry in assay [1] and in assay [2] was “Not Active” in each case.

For `Oc1ncnc2[nH]ncc12` [ALLOPURINOL], the IC50 result (on Progesterone receptor; on Glycine receptor; in assay [1]; in assay [2]; against Neutrophil elastase; in assay [3]) was “Not Active” each time. Besides, the IC50 entry in assay [4] is “Not Active”. The Ki entry in assay [1] and in assay [2] was “Not Active” each time.

Take `C=CCO` [ALLYL ALCOHOL]: the IC50 result (at Progesterone receptor; against Glycine receptor; in assay [1]; in assay [2]; on Neutrophil elastase; in assay [3]) was “Not Active” in each case. The IC50 entry in assay [4] is given as “Not Active”. For the same molecule, the Ki result in assay [1] and in assay [2] was “Not Active” throughout.

With `Nc1nc(N)c2nc(CNc3ccc(C(=O)N[C@@H](CCC(=O)O)C(=O)O)cc3)cnc2n1` [AMINOPTERIN], the IC50 entry (on Progesterone receptor; against Glycine receptor; in assay [1]; in assay [2]; at Neutrophil elastase; in assay [3]) was “Not Active” each time. In addition, the IC50 result in assay [4] is reported as “Not Active”. In addition, the Ki result in assay [1] and in assay [2] was “Not Active” each time.

Regarding `Nc1ccc(C(=O)O)c(O)c1` [AMINOSALICYLIC ACID], the IC50 result (at Progesterone receptor; at Glycine receptor; in assay [1]; in assay [2]; against Neutrophil elastase; in assay [3]) was “Not Active” in each case. The IC50 result in assay [4] was “Not Active”. Further, the Ki result in assay [1] and in assay [2] was “Not Active” throughout.

`C[C@@H]1[C@H](O)[C@@H](C)/C=C/C=C/C=C/C=C/C=C/C=C/C=C/[C@H](O[C@@H]2O[C@H](C)[C@@H](O)[C@H](N)[C@@H]2O)C[C@@H]2O[C@](O)(C[C@@H](O)C[C@@H](O)[C@H](O)CC[C@@H](O)C[C@@H](O)CC(=O)O[C@H]1C)C[C@H](O)[C@H]2C(=O)O` [AMPHOTERICIN B]: the IC50 entry (at Progesterone receptor; on Glycine receptor; in assay [1]; in assay [2]; at Neutrophil elastase; in assay [3]) was “Not Active” each time. The IC50 entry in assay [4] is “Not Active”. Besides, the Ki entry in assay [1] and in assay [2] was “Not Active” in each case.

As for `CC(C)(C#N)c1cc(Cn2cncn2)cc(C(C)(C)C#N)c1` [ANASTROZOLE], the IC50 entry (at Progesterone receptor; on Glycine receptor; in assay [1]; in assay [2]; at Neutrophil elastase; in assay [3]) was “Not Active” throughout. In addition, the IC50 entry in assay [4] is “Not Active”. For the same molecule, the Ki entry in assay [1] and in assay [2] was “Not Active” each time.

In the case of `C[C@]12CC[C@@H](O)C[C@@H]1CC[C@@H]1[C@@H]2CC[C@]2(C)C(=O)CC[C@@H]12` [ANDROSTERONE], the IC50 result (on Progesterone receptor; against Glycine receptor; in assay [1]; in assay [2]; against Neutrophil elastase; in assay [3]) was “Not Active” throughout. Further, in assay [4], the IC50 entry is “Not Active”. Moreover, the Ki result in assay [1] and in assay [2] was “Not Active” throughout.

For the molecule `CC(C)NCC(O)COc1ccc(CC(N)=O)cc1` (stereo not drawn) [ATENOLOL], the IC50 entry (at Progesterone receptor; at Glycine receptor; in assay [1]; in assay [2]; at Neutrophil elastase; in assay [3]) was “Not Active” in each case. In addition, the IC50 result in assay [4] is given as “Not Active”. In addition, the Ki result in assay [1] and in assay [2] was “Not Active” in each case.

Consider `NCC(CC(=O)O)c1ccc(Cl)cc1` (stereo not drawn) [BACLOFEN], for which the IC50 entry (at Progesterone receptor; against Glycine receptor; in assay [1]; in assay [2]; on Neutrophil elastase; in assay [3]) was “Not Active” each time. Moreover, in assay [4], the IC50 entry is “Not Active”. The Ki entry in assay [1] and in assay [2] was “Not Active” throughout.

With `O=C(O)c1ccccc1` [BENZOIC ACID], the IC50 entry (on Progesterone receptor; on Glycine receptor; in assay [1]; in assay [2]; against Neutrophil elastase; in assay [3]) was “Not Active” each time. Besides, the IC50 result in assay [4] is recorded as “Not Active”. Besides, the Ki entry in assay [1] and in assay [2] was “Not Active” throughout.

For the molecule `c1ccc2sc(SSc3nc4ccccc4s3)nc2c1` [BENZOTHIAZYL DISULFIDE], the IC50 result (at Progesterone receptor; against Glycine receptor; in assay [2]; against Neutrophil elastase; in assay [3]) was “Not Active” throughout. Further, the negative logarithm of the IC50 (pIC50) (in general, the negative decadic logarithm of the IC50, by convention in mol/L) in assay [1] (read-out: IC50) was 5.29; in assay [4] (read-out: IC50) it was 5.28. Besides, the pKi (commonly the negative decadic logarithm of the Ki, by convention in mol/L) in assay [1] (read-out: Ki) was 5.89; in assay [4] (read-out: Ki), 5.61. Moreover, the Ki entry in assay [2] was “Not Active”.

With `OC[C@H]1O[C@@H]2O[C@H]3[C@H](O)[C@@H](O)[C@@H](O[C@H]4[C@H](O)[C@@H](O)[C@@H](O[C@H]5[C@H](O)[C@@H](O)[C@@H](O[C@H]6[C@H](O)[C@@H](O)[C@@H](O[C@H]7[C@H](O)[C@@H](O)[C@@H](O[C@H]8[C@H](O)[C@@H](O)[C@@H](O[C@H]1[C@H](O)[C@H]2O)O[C@@H]8CO)O[C@@H]7CO)O[C@@H]6CO)O[C@@H]5CO)O[C@@H]4CO)O[C@@H]3CO` [BETADEX], the IC50 result (on Progesterone receptor; on Glycine receptor; in assay [1]; in assay [2]; against Neutrophil elastase; in assay [3]) was “Not Active” in each case. Further, the IC50 result in assay [4] is “Not Active”. The Ki entry in assay [1] and in assay [2] was “Not Active” throughout.

These data come from ChEMBL document CHEMBL1909046, “DrugMatrix in vitro pharmacology data”.
